Data on four compounds can be found in patent publication US11253524B2 (Gilead Sciences, Inc., priority 2018, dated 2022).

For data set [1], the target named is T1, multidrug-resistance protein 2 (MRP2; ABCC2) (Homo sapiens, UniProt Q92887).
T1 construct: host or cells: membrane vesicle preparations
Put plainly: in vitro. The data set is classed as biochemical. The method, then:
(§1) Cells and experimental conditions for the transporter inhibition assays are summarized below in Table 7. […] M15, M20, and M23 were prepared according to the procedures described herein. All other materials were purchased by SOLVO Biotechnology and experiments were conducted according to SOLVO Standard Operating Procedures (SOPs) of its certified ISO 9001:2008 system. Lot and product information was recorded by SOLVO Biotechnology.
(§2) Test compounds and positive control was incubated with membrane vesicle preparations (total protein: 50 μg/well) and the model substrate in the absence or presence of ATP. Reaction mixtures were preincubated for 15 minutes at 37° C. Reactions were started by the addition of 25 μL of 12 mM MgATP or AMP assay buffer (for background controls) preincubated separately. Reactions were stopped after 5 min by the addition of 200 μL of ice-cold washing buffer and immediate filtration via glass fiber filters mounted to a 96-well plate (filter plate). The filters were washed, dried and the amount of substrate inside the filtered vesicles determined by liquid scintillation. A positive control inhibitor was tested in parallel. Control membranes lacking transporter expression were used as negative control. All assays were performed in duplicate.
(§3) Fractional transport activities were calculated from the following equation: Activity %=(A−B)/(C−D)×100 where A is translocated amount of substrate in the presence of TA and ATP, B is translocated amount of substrate in the presence of TA, C is translocated amount of substrate in the presence of solvent and ATP, and D is translocated amount of substrate in the presence of solvent. IC50 Determination in Transporter Assays
(§4) IC50 is defined as the test article concentration needed to inhibit the maximal transporter specific transport by 50%. IC50 values were calculated using non-linear fitting of % inhibition versus concentration to a sigmoidal curve with a variable Hill Coefficient using GraphPad Prism 5 (GraphPad Software Inc., San Diego, Calif.). If the % inhibition was less than 50% at the highest concentration tested, the IC50 was not determined. No inhibition observed (NIO) is reported for relative inhibition results <20% and no concentration dependent transport observed up to the highest concentration tested.

Data set [2] has as its target T2, human hepatic microsomal UGT1A1 (Homo sapiens, UniProt P22309).
T2 sequence (P22309 26-533): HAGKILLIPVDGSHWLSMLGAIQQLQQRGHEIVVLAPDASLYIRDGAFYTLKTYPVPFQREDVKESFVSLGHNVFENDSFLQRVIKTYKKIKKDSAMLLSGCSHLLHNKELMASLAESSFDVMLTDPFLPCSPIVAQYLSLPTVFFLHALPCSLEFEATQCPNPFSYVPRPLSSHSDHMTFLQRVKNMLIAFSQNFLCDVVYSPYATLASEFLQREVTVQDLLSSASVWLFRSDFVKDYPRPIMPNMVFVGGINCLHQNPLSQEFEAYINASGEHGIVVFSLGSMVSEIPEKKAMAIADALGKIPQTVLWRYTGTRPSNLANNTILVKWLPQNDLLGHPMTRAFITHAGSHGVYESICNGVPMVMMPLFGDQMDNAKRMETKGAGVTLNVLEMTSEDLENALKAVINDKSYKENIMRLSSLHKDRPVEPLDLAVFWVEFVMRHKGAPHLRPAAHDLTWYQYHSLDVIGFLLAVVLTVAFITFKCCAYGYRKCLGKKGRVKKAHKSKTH
As to the kind of experiment: biochemical. Conditions: for Stimulation of enzyme activity, peak increase: at 200 μM. The method, then: The conditions for the assay were determined to be linear with respect to microsomal protein concentration and incubation time. […] Microsomal UGT1A1 activity was determined in duplicate. […] Diluted microsomal fraction was incubated on ice for 15 minutes with alamethicin, magnesium chloride and SACLAC. Substrate and inhibitor were then added and the mixture warmed to 37° C. for 0.5 minute. The reaction was initiated by the addition of UDP glucuronic acid in potassium phosphate buffer. The incubation continued at 37° C. with shaking and no light exposure for 2 minutes. Reactions were terminated by addition of one volume of 200 mM ascorbic acid in methanol, containing 200 nM 2-(N-(2-ethylphenyl)methylsulfonamido)-N-(2-(pyridin-2-ylthio)ethyl)acetamide as the internal standard.
A Shimadzu UFLC XR UPLC system was used for analysis. The column used was a Thermo-Hypersil Gold 1.9 μm C18 column (30×2.1 mm) held at 60° C. Mobile phases were; A: water containing 0.1% (v/v) formic acid, and B: acetonitrile containing 0.1% (v/v) formic acid, pumped at 0.7 mL/minute. Elution was achieved by a series of linear gradients over 2 minutes. The mass spectrometer was an Applied Biosciences SCIEX QTRAP 5500 triple quadrupole mass spectrometer with an electrospray interface operating in positive ion mode. Quantification was by metabolite/internal standard peak area ratio (PAR).
MS/MS transitions ([M+H]+) of m/z 761.2/475.1 and 937.2/475.1 for the monoglucuronide and diglucuronide, respectively. The PAR values for the two monoglucuronides were combined for quantification.
Reaction velocities were calculated from the rates of formation of the metabolites and were compared to those seen with the vehicle control (100% activity). IC50 values were calculated by non-linear regression using GraphPad Prism 7.03 and a sigmoidal three parameter inhibition model. […] During the testing period the inhibitory potency of atazanavir was determined four times, with each concentration tested in duplicate in each determination. The data from all runs were pooled and a global fit performed to determine the lower plateau value. […] For atazanavir, the IC50 values from the four duplicate runs were combined to generate a summary geometric mean and multiplicative standard deviation for this positive control inhibitor.

In another data set the target is T3, MRP2 (ABCC2) (Homo sapiens, UniProt Q92887).
T3 construct: host or cells: membrane vesicle preparations
As to the kind of experiment: in vitro. Format: biochemical. Particulars: human. The method, then:
as §1, §2, §3, §4

T1 sequence (Q92887 whole entry): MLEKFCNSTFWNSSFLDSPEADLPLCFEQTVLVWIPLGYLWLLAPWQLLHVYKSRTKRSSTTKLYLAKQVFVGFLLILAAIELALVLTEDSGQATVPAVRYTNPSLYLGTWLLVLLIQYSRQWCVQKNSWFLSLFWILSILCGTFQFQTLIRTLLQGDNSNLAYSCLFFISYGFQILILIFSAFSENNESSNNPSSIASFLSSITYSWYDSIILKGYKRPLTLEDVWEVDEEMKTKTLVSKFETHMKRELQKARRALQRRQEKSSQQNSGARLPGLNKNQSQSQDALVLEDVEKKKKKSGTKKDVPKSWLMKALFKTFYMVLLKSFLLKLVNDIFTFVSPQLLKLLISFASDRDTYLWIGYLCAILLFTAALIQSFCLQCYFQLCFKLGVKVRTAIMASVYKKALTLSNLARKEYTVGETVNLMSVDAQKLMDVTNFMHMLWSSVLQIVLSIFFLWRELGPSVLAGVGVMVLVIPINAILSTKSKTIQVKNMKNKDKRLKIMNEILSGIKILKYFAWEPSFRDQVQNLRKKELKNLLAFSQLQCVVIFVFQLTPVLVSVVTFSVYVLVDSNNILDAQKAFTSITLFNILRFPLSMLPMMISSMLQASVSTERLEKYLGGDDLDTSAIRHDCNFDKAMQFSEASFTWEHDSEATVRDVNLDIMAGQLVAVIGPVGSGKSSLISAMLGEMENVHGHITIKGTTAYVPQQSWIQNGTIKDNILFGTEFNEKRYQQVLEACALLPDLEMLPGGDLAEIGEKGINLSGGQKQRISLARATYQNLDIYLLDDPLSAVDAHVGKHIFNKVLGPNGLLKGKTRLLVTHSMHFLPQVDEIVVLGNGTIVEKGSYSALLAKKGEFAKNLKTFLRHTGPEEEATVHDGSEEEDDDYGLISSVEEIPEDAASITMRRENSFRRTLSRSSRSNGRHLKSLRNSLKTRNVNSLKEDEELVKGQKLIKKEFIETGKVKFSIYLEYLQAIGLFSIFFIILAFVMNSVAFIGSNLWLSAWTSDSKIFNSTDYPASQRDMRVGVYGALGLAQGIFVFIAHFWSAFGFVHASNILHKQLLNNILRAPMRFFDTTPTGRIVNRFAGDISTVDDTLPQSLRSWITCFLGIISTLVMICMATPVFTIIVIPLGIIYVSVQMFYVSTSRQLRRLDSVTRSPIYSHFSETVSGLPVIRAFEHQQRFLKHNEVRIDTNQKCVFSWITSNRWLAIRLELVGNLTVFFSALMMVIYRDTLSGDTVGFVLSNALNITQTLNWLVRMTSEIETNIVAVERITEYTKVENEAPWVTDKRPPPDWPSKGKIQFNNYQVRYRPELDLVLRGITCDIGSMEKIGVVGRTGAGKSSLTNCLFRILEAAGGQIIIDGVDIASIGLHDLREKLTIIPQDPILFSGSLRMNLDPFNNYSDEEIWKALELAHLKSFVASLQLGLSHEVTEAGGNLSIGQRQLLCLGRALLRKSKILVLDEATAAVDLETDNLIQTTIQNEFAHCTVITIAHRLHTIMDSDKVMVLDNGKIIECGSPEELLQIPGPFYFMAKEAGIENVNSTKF
T3 sequence (Q92887 whole entry): as above

Consider `O=C(NCc1c(F)cc(F)cc1F)c1cn2c(c(O)c1=O)C(=O)N1[C@H]3CC[C@H](C3)O[C@@H]1C2` [BIC, bictegravir, reference compound], for which, in data set [1], the “IC50 (μM)” value was “NIO”. Moreover, in data set [2], the IC50 was above 300 µM and the “Stimulation of enzyme activity, peak increase” value turned out to be 76%.
Consider `O=C(NCc1c(F)cc(F)cc1F)c1cn2c(c(O[C@@H]3O[C@H](C(=O)O)[C@@H](O)[C@H](O)[C@H]3O)c1=O)C(=O)N1[C@H]3CC[C@H](C3)O[C@@H]1C2` [Metabolite M15], for which the inhibition at 5 min, 300 µM against MRP2 (ABCC2) was 53%. In data set [1], this compound registered an IC50 of 256 µM. Besides, in data set [2], the IC50 was above 300 µM and the “Stimulation of enzyme activity, peak increase” value worked out at 21%.
Regarding `O=C(NCc1c(F)cc(F)c(OS(=O)(=O)O)c1F)c1cn2c(c(O)c1=O)C(=O)N1C(C2)O[C@@H]2CC[C@H]1C2` (stereo partly shown) [Metabolite M20], the inhibition at 5 min, 300 µM on MRP2 (ABCC2) came out at 98%. Also, the IC50 in data set [1] amounted to 45 µM; in data set [2], 153 µM.
In turn, `O=C(NCc1c(F)cc(F)c(O)c1F)c1cn2c(c(O)c1=O)C(=O)N1[C@H]3CC[C@H](C3)O[C@@H]1C2` [Metabolite M23] yielded an inhibition at 5 min, 100 µM against MRP2 (ABCC2) of 43%. The IC50 in data set [1] is above 100 µM; in data set [2] it was 256 µM.
